Molecules are shown by their SMILES.

Three molecules from US12029789B2, “Agent for use in the treatment of glioma” (DC EUROPA LIMITED, priority 2015, dated 2024) can be followed below.

The test system of assay [1] is S24 GBMSC astrocytoma cells. Briefly: In vivo calcium imaging with MPLSM: intercellular calcium waves (frequency, synchronicity of calcium peaks) in tumor cells. Details: species or system mouse.
Description: The following small molecule calcium indicators were used: for GFP-transfected tumor cells: 2 mM Rhod-2AM (life technologies, R-1244); for RFP-transfected: 2 mM Fluo-4AM (life technologies, F-14201). The dissolved dyes were applied to the brain surface for 45 min. Regions with a similar tumor cell density were used. […] Pharmacological gap junction inhibition was achieved by superfusion with the gap junction inhibitor CBX (100 μM; control substance: extracellular saline; n=3 mice per group).
Two genetically-encoded calcium indicators were lentivirally transduced to GBMSCs: (A) The Lck-GCaMP3 sensor in the rrl-CAG-IGC3 vector (CAG promoter to control expression of DsRed and the Ca^2+ sensor that monitors near-membrane changes in [Ca^2+]i). (B) The radiometric calcium sensor Twitch-3 was used to determine intracellular calcium concentrations by Förster Resonance Energy Transfer (FRET) as known in the art.
Tumor cells or non-malignant brain astrocytes were marked manually by the use of the ROI Manager of ImageJ. Mean gray values were measured over time. […] Local maxima of calcium signals were detected by the findpeaks function (signal package, Octave-Forge). Thus, the number of calcium peaks of each cell (N) could be determined and the frequency (f) was calculated. The frequency was standardized for the cell number of each region to ensure comparability. Synchronous cells, the number of synchronous communications, and the time point of the synchronous firing were determined. Due to the fact that the images were recorded via a line mode, which leads to a latency of signal detection, the analysis was done in a window of 2 frames around each peak. This allowed to assess the synchronicity S (S∈R^+∪{0}), which was defined as the fraction of the whole number of synchronous cells (N_Syn) divided by the number of calcium peaks for the given cell (N_Ca). In case the cells were not active, a synchronicity of zero was allotted.
For example, in a system with a synchronicity of 1, a firing cell interacts with a second one. […]
In another assay the test system is normal brain astrocytes. Briefly: In vivo calcium imaging with MPLSM: calcium waves in co-registered normal brain astrocytes. The settings on record: superfusion with suramin 100 μM (ATP receptor blockade); FIG. 8D. Details: species or system mouse. As for the experimental part:
The following small molecule calcium indicators were used: for GFP-transfected tumor cells: 2 mM Rhod-2AM (life technologies, R-1244); for RFP-transfected: 2 mM Fluo-4AM (life technologies, F-14201). The dissolved dyes were applied to the brain surface for 45 min. Regions with a similar tumor cell density were used. For the combination of radiotherapy and calcium imaging, mice were pretreated with Fluo-4AM and imaged after awaking with low isoflurane (0.5%). One hour after radiotherapy, the same regions were imaged again to detect changes in calcium activity. Pharmacological gap junction inhibition was achieved by superfusion with the gap junction inhibitor CBX (100 μM; control substance: extracellular saline; n=3 mice per group). […]
Tumor cells or non-malignant brain astrocytes were marked manually by the use of the ROI Manager of ImageJ. Mean gray values were measured over time. […] Local maxima of calcium signals were detected by the findpeaks function (signal package, Octave-Forge). Thus, the number of calcium peaks of each cell (N) could be determined and the frequency (f) was calculated. […] Synchronous cells, the number of synchronous communications, and the time point of the synchronous firing were determined. Due to the fact that the images were recorded via a line mode, which leads to a latency of signal detection, the analysis was done in a window of 2 frames around each peak. […]

The test system of a further assay is S24 GBMSCs. Briefly: Intratumoral microinjection of sulforhodamine 101 (SR101): dye distribution in TM-connected tumor cell network. In kind it is in vivo, mouse. The settings on record: SR101 100 μM co-injected with 100 μM CBX, 120 min after injection; FIG. 7G. As for the experimental part: For intratumoral microinjection of sulforhodamine 101 (SR101, Molecular Probes, S-359), 50 nl of 100 μM SR101 (with or without 100 μM CBX, Sigma-Aldrich, C4790) were injected with a very thin glass pipette into tumor regions of similar cellular densities, >90 days after tumor injection.
For in vivo imaging data, TM numbers, branches/TM and connections/cell were counted manually, and TM lengths were measured manually in the slice mode in Imaris. For quantification and analysis of tumor cells/TMs before and after radiotherapy, cells were counted in the same regions before radiation or sham radiation, and at different time points afterwards. Cells without a TM-connection were defined as “non-connected” and cells with at least one TM-connection(s) as “connected”. To analyze the number of TMs before and after irradiation, the TMs of individual, identical cells were counted at both time points. Ratios were calculated to determine the relative changes of cell and TM numbers over time. For the measurement of tumor volumes in BT088 tumors before and after radiotherapy, two regions were analyzed per animal using the surface function of Imaris. The mean speed of tumor cell invasion in S24 shControl vs. shGAP-43 tumors was determined by analysis of three consecutive imaging time points within a 24 hour time interval in vivo. […] They were connected to tracks and the mean track speed was calculated. […]

Take `Cc1ccc(C(=O)Nc2ccc(S(=O)(=O)O)c3cc(S(=O)(=O)O)cc(S(=O)(=O)O)c23)cc1NC(=O)c1cccc(NC(=O)Nc2cccc(C(=O)Nc3cc(C(=O)Nc4ccc(S(=O)(=O)O)c5cc(S(=O)(=O)O)cc(S(=O)(=O)O)c45)ccc3C)c2)c1` [suramin]: in assay [1] (superfusion with suramin 100 μM (ATP receptor blockade), FIG. 8D), the “ICWs in malignant astrocytic cells” value is reported as “reduced ICWs”. Further, the “ICWs in normal astrocytic cells” value with normal brain astrocytes is listed as “reduced ICWs”. Regarding `CC1(C)[C@@H](OC(=O)CCC(=O)O)CC[C@]2(C)[C@H]3C(=O)C=C4[C@@H]5C[C@@](C)(C(=O)O)CC[C@]5(C)CC[C@@]4(C)[C@]3(C)CC[C@@H]12` [CBX, carbenoxolone], in assay [1] (brain superfusion with 100 μM carbenoxolone (CBX) vs. extracellular saline, S24, FIG. 7E), the “frequency and synchronicity of ICWs in GBMSC astrocytoma cells” value is “reduced”. Besides, in the assay on S24 GBMSCs, the “distribution of sulforhodamine 101 in the TM-connected tumor cell network” value is “inhibited”. For the molecule `NCCOB(c1ccccc1)c1ccccc1` [2-APB, 2-aminoethoxydiphenyl borate], the “ICWs between astrocytoma cells” value in assay [1] (superfusion with 2-APB 100 μM (inhibitor of IP3 receptors), FIG. 8D) is recorded as “reduced ICWs”.
